The source made the active and inactive calls.
Tests used:
Nonstructural protein 1 = Nonstructural protein 1 (Influenza A virus, UniProt Q194T2); type: functional, Influenza A virus (A/California/07/2009(H1N1))
[1] = molecular target: T1, Matrix metalloproteinase-14 (Homo sapiens, UniProt P50281); experiment: Dose Response confirmation of uHTS hits for a small molecule inhibitors of MT1-MMP activation in a fluorescence assay set 1.; type: functional
INS1 = experiment: beta cell apoptosis inhibitors, cytokine rescue, dose response, luminescence, retest (AID 449756); type: functional, cell-based; conditions: Rattus norvegicus;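 note: cell death triggered by IL-1 beta plus TNF-alpha plus IFN-gamma mixture; protective hits raise ATP signal compared with cytokine alone wells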
[2] = Shn3 3'UTR reporter inhibitors, dose response, cell-based, Clone20 osteoblasts, firefly luciferase, cherry-picked (AID 624132); type: functional;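 note: firefly luciferase luminescence from reporter carrying the Shn3 3'UTR in osteoblasts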
[3] = HepG2 cell cytotoxicity, dose response, cytotoxicity control for Shn3 inhibitor project, CellTiter-Glo, cherry-picked (AID 624134); type: functional, cell-based
[4] = control 3'UTR Renilla luciferase suppression, dose response, counter-screen for Shn3 inhibitor project, cell-based, Clone20-Shn3RL, cherry-picked (AID 624133); type: functional
Protein Wnt-3a = Protein Wnt-3a (Mus musculus, UniProt P27467); experiment: Wnt3a-driven reporter signaling inhibition, dose response, selectivity assay for Gli-SUFU antagonist project, Wnt-LIGHT cells, luminescence (AID 651570); type: functional; conditions: read-out: IC50_Mean;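 note: Wnt-LIGHT reporter cells stimulated with conditioned medium from Wnt3a-producing cells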
[5] = molecular target: COUP transcription factor 2 (Homo sapiens, UniProt P24468); experiment: Luminescence-based cell-based high throughput dose response assay to identify inhibitors of COUP-TFII (NR2F2).; type: functional;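 note: HEK293 cells transiently cotransfected with COUP-TFII expression vector and reporter; luciferase reporter luminescence driven by COUP-TFII from the pX2-168 reporter plasmid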
[6] = Luminescence Cell-Based Dose Response to Identify Activators of 5'UTR Stem-Loop Driven Prion Protein mRNA Translation in H4-C Neuroglioblastoma Cells. [Related pubchem assays: 1829 (Project Summary), 1814 (Primary HTS)]; type: functional
[7] = Luminescence Cell-Based Dose Response HTS to Identify Activators of Luciferase Translation or Activity in H4 […] Cells. [Related pubchem assays: 1829 (Project Summary), 1814 (Primary HTS)]; type: functional
H4 = experiment: Luminescence Cell-Based Dose Response HTS to Identify Activators of 5'UTR Stem-Loop Driven Prion Protein mRNA Translation in H4 Neuroglioblastoma Cells. [Related pubchem assays: 1829 (Project Summary), 1814 (Primary HTS)]; type: functional; conditions: Homo sapiens
[8] = Luminescence Cell-Based Dose Response to Identify Activators of Luciferase Translation or Activity in H4-C Neuroglioblastoma Cells. [Related pubchem assays: 1829 (Project Summary), 1814 (Primary HTS)]; type: functional
[9] = molecular target: Peroxisome proliferator-activated receptor gamma/Nuclear receptor corepressor 2 (Homo sapiens, UniProt P37231+Q9Y618); experiment: Counterscreen for NR2E3 inverse agonists: TR-FRET-based biochemical high throughput dose response assay to identify inverse agonists of the interaction between peroxisome proliferator-activated receptor gamma (PPARg) and nuclear receptor co-repressor 2 (NCOR2).; type: functional
[10] = molecular target: Photoreceptor-specific nuclear receptor (Homo sapiens, UniProt Q9Y5X4); experiment: NR2E3 inverse agonists, dose response, biochemical, TR-FRET (AID 463256); type: functional
[11] = Luminescence Cell-Based Dose Confirmation to Identify Activators of 5'UTR Stem-Loop Driven Alpha-Synuclein mRNA Translation in H4 Neuroglioblastoma Cells. [Related pubchem assays: 1829 (Project Summary), 1814 (Primary HTS)]; type: functional
[12] = molecular target: Fructose-bisphosphate aldolase (Mycobacterium tuberculosis, UniProt P9WQA3); experiment: Fluorescence-based biochemical high throughput dose response assay for inhibitors of the fructose-bisphosphate aldolase (FBA) of M. tuberculosis.; type: functional
Kallikrein-7 = Kallikrein-7 (Homo sapiens, UniProt P49862); experiment: Fluorescence Intensity-based biochemical primary high throughput dose response assay to identify activators of kallikrein-7 (K7) zymogen.
[13] = EDANS-DABCYL fluorescence interference, concentration series, dose response, artefact control for kallikrein-7 zymogen activator project, biochemical, fluorescence intensity, triplicate (AID 720493)
[14] = molecular target: Endoplasmic reticulum aminopeptidase 1 (Homo sapiens, UniProt Q9NZ08); experiment: ERAP1 aminopeptidase inhibitors, dose response, biochemical, cherry-pick, set 2, plate reader (AID 743314)
[15] = HepG2 cell cytotoxicity, dose response, cytotoxicity control, ATP luminescence, cherry-pick, activator set 2 (AID 1053143); type: functional, cell-based
[16] = molecular target: T1, Matrix metalloproteinase-14; experiment: Dose Response confirmation of uHTS hits for a small molecule inhibitors of MT1-MMP activation in a fluorescence assay set 2.; type: functional
Vero = experiment: Vero cell toxicity, dose response, cytotoxicity control, plate reader, cherry-pick samples (AID 687020); type: functional, cell-based; conditions: Chlorocebus sabaeus
A549 = experiment: A549 cell toxicity, dose response, cytotoxicity control, plate reader, cherry-pick samples (AID 687028); type: functional, cell-based; conditions: Homo sapiens
Paired box protein Pax-8 = Paired box protein Pax-8 (Homo sapiens, UniProt Q06710); experiment: inhibitors of PAX8-driven TPO luciferase reporter, dose response, RMG-I cells, cherry-pick (AID 687027); type: functional, cell-based;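 note: luciferase reporter driven by Pax8 target thyroperoxidase promoter measured by SteadyGlo luminescence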
BHK-21 = experiment: BHK-21 cell toxicity, dose response, cytotoxicity control, plate reader, cherry-pick samples (AID 687030); type: functional, cell-based; conditions: Mesocricetus auratus
[17] = LMP1-driven NF-kB reporter inhibition, dose response, cell-based, luciferase reporter, luminescence, dry powder, set 2 (AID 624376); type: functional
[18] = inhibitors of LMP1-driven NF-kB reporter, dose response, cell-based, EBV LMP1, luciferase, dry powder, set 2 (AID 624361); type: functional
[19] = inhibitors of TNFa-stimulated NF-kB luciferase reporter, dose response, selectivity assay for EBV LMP1 NF-kB inhibitor project, HEK293 LMP1 reporter cells, dry powder, set 2 (AID 624369); type: functional
[20] = NIH:OVCAR-3 ovarian cancer cell cytotoxicity, dose response, PAX8 inhibitor project, plate reader, dry powder samples (AID 743044); type: functional, cell-based
[21] = cytotoxicity in OVCAR8 ovarian cancer cells, dose response, PAX8 project, cell-based, plate reader, dry powder samples (AID 743197); type: functional; conditions: OVCAR-8
HeLa = experiment: HeLa cell cytotoxicity, dose response, cytotoxicity control, ATP luminescence, cherry-pick samples (AID 687004); type: functional, cell-based; conditions: Homo sapiens
HEK293 = experiment: HEK293T cell cytotoxicity, dose response, cytotoxicity control, ATP luminescence, cherry-pick samples (AID 687005); type: functional, cell-based; conditions: Homo sapiens;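 note: cells exposed to compound for 48 hours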
[22] = HEK293 Cytotoxicity Assay Measured in Cell-Based System Using Plate Reader - 7071-01_Inhibitor_Dose_CherryPick_Activity_Set2.; type: functional

Sequence of Paired box protein Pax-8 (Q06710 whole entry): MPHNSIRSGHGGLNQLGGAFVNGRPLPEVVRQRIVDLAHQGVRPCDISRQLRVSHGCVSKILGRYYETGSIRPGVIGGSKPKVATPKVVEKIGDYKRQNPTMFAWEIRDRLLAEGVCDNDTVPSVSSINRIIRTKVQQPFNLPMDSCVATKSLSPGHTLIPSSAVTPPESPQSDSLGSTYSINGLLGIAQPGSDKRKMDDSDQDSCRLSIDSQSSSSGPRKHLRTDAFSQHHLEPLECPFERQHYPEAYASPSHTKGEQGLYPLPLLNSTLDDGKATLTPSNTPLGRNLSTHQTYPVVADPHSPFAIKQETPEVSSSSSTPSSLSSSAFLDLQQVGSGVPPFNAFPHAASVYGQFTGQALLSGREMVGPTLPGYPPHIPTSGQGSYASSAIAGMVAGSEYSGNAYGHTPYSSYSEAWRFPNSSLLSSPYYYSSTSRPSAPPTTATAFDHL
Sequence of Nonstructural protein 1 (Q194T2 whole entry): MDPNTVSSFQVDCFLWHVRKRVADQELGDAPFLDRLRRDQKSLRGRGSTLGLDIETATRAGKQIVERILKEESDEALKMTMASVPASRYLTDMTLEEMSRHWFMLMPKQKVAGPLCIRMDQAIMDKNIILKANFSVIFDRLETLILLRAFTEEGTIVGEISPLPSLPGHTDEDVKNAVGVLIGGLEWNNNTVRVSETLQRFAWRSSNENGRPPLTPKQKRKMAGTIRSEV
Sequence of Fructose-bisphosphate aldolase (P9WQA3 whole entry): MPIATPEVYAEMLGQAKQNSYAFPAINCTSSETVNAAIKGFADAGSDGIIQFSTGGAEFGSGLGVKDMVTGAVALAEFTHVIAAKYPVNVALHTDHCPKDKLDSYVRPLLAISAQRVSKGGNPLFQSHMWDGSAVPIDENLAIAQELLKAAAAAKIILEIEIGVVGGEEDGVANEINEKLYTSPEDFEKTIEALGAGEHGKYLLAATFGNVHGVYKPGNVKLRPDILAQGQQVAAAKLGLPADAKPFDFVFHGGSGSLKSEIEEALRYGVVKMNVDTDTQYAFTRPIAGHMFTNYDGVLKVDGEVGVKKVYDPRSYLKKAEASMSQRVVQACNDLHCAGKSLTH
Sequence of Kallikrein-7 (P49862 whole entry): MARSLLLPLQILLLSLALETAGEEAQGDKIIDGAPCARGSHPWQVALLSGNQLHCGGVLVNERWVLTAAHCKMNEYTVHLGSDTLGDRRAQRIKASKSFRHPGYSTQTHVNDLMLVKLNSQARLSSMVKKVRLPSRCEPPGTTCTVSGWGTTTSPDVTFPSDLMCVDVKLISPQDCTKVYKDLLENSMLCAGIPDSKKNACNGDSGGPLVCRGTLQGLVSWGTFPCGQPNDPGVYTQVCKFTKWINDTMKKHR
Sequence of Photoreceptor-specific nuclear receptor (Q9Y5X4 whole entry): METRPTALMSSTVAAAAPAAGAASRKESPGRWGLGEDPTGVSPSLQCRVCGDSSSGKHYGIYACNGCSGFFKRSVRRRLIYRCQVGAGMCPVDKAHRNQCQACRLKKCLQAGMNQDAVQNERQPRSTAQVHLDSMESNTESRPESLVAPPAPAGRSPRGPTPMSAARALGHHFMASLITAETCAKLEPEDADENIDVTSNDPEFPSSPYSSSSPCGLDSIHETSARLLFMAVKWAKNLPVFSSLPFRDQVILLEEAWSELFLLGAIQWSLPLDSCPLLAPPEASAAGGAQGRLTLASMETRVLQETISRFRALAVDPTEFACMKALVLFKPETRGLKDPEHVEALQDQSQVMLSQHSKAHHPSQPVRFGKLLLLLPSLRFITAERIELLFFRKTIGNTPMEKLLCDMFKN
Sequence of Protein Wnt-3a (P27467 whole entry): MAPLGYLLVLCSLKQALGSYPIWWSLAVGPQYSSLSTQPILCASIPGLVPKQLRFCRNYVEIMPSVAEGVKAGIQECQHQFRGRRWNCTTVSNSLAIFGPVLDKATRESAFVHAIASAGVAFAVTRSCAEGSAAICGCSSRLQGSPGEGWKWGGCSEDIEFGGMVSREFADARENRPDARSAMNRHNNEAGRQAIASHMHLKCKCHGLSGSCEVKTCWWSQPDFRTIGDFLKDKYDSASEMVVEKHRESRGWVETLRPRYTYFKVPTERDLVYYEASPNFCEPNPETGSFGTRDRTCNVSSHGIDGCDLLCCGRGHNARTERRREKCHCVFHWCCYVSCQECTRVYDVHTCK
Sequence of Endoplasmic reticulum aminopeptidase 1 (Q9NZ08 whole entry): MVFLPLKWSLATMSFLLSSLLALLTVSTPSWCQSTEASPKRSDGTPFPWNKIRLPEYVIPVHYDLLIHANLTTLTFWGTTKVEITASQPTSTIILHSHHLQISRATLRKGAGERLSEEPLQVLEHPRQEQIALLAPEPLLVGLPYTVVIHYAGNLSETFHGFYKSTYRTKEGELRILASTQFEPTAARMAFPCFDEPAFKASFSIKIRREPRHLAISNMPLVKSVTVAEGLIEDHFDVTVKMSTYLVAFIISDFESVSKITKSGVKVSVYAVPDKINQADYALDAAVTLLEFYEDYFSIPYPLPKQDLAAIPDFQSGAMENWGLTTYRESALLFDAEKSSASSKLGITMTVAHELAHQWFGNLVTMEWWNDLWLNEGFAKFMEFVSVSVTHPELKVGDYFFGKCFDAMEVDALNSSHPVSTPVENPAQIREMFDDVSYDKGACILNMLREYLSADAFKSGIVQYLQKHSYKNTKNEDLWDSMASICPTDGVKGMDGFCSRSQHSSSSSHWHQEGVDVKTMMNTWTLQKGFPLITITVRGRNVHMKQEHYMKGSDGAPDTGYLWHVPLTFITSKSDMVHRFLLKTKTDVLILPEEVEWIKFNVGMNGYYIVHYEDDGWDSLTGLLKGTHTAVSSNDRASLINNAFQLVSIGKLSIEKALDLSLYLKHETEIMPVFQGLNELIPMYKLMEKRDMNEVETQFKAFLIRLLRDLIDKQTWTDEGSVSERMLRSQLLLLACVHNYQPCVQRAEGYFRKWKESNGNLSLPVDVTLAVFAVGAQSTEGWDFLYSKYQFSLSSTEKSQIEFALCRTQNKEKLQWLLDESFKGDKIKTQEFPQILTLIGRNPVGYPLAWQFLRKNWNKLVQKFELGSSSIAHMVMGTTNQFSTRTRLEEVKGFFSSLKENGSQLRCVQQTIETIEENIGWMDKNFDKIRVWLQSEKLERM
Sequence of COUP transcription factor 2 (P24468 whole entry): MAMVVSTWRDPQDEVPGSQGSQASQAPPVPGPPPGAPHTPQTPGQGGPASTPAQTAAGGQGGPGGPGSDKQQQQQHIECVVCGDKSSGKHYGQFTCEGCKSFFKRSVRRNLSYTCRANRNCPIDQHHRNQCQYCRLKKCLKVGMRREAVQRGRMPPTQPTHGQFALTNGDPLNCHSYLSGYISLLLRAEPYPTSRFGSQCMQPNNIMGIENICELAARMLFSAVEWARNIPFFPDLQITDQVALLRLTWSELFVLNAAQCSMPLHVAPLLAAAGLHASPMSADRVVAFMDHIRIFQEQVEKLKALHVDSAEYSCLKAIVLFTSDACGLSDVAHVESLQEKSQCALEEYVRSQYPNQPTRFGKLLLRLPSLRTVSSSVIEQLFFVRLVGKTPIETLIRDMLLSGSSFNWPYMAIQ

**Q.** For `Cc1cc(N(CCO)CCO)ccc1N=Nc1cc(F)ccc1F`, which IC50 (Nonstructural protein 1) is on record?
**A.** 19.2 µM (active)

**Q.** What about the IC50 [1] of the same compound?
**A.** 31.6 µM (inactive)

**Q.** With `Cc1cccn2c(=O)c3cc(C(N)=S)c(=N)n(CCCOC(C)C)c3nc12` as the compound, how does the AC50 (cells) read?
**A.** 0.626 µM (active)

**Q.** Which AC50 (INS1) does the source give for `O=C(c1cc(COc2cccc3cnccc23)on1)N1CCCC(CCCO)C1` (stereo unspecified) here?
**A.** 1.41 µM (active)

**Q.** And the AC50 [2]?
**A.** 0.519 µM (active)

**Q.** What about the AC50 [3] of the same compound?
**A.** 1.98 µM (active)

**Q.** And the AC50 [4]?
**A.** 1.14 µM (active)

**Q.** And the IC50 (Protein Wnt-3a)?
**A.** 0.338 µM (active)

**Q.** And the IC50 [5]?
**A.** 2.58 µM (active)

**Q.** What does the source list for `CN1CCSc2ccc(C(=O)Nc3ccc(Cl)cc3)cc21`?
**A.** EC50 [6]: 0.208 µM (active); EC50 [7]: 0.148 µM (active); EC50 (H4): 0.101 µM (active); EC50 [8]: 0.366 µM (active); IC50 [9]: 8.59 µM (active); IC50 [10]: 9.21 µM (active); EC50 [11]: 0.321 µM (active); IC50 [12]: > 1.11 µM (active)

**Q.** For `CN1CCN(Cc2c(O)c(Cl)cc3c(-c4ccccc4)cc(=O)oc23)CC1`, which EC50 (Kallikrein-7) is on record?
**A.** 68.3 µM (inactive)

**Q.** What about the EC50 [13] of the same compound?
**A.** > 0.286 µM (active)

**Q.** With `CCc1c(C)c2cc(Cl)c(O)c(CN(C)C)c2oc1=O` as the compound, how does the AC50 [14] read?
**A.** 5.35 µM (active)

**Q.** Which AC50 [15] does the source give for `Cc1c(Cl)ccc2sc(NC(=O)c3ccco3)nc12` here?
**A.** 17.4 µM (active)

**Q.** Which results are given for `CN(CCCC(=O)O)c1ccc(N=Nc2ccc([N+](=O)[O-])cc2)cc1`?
**A.** IC50 (Nonstructural protein 1): 9.48 µM (active); IC50 [16]: 18.9 µM (active)

**Q.** Which results are given for `CCCCCc1c(-c2ccccc2OC)ncn1CCc1ccccc1OC`?
**A.** AC50 (Vero): 3.91 µM (active); AC50 (A549): 13.9 µM (active); AC50 (Paired box protein Pax-8): 24.9 µM (active)

**Q.** Which AC50 (BHK-21) does the source give for `COc1ccc2c3c([nH]c2c1)[C@H](CO)N(C(=O)Nc1cccc(F)c1)CC31CN(S(=O)(=O)c2ccccc2)C1` here?
**A.** 34.1 µM (active)

**Q.** For `CC(=O)N(C)C[C@@H]1Oc2cc(C#Cc3ccc(F)cc3)ccc2S(=O)(=O)N([C@H](C)CO)C[C@H]1C`, which AbsAC35 [17] is on record?
**A.** 109.84 µM

**Q.** And the AbsAC35 [18]?
**A.** 57.53 µM

**Q.** Which AbsAC35 [19] does the source give for `COc1ccccc1C#Cc1ccc2c(c1)O[C@H](CN(C)Cc1cccnc1)[C@H](C)CN([C@@H](C)CO)S2(=O)=O` here?
**A.** 38.33 µM

**Q.** What about the AC50 (Paired box protein Pax-8) of the same compound?
**A.** 7.51 µM (active)

**Q.** And the AC50 [20]?
**A.** 21.4 µM (active)

**Q.** What about the AC50 [21] of the same compound?
**A.** 32.2 µM (active)

**Q.** For `COCCNC(=O)C[C@H]1C=C[C@@H](NS(=O)(=O)c2ccc(C)cc2)[C@H](CO)O1`, which AC50 (HeLa) is on record?
**A.** 19.9 µM (active)

**Q.** And the AC50 (HEK293)?
**A.** 23.9 µM (active)

**Q.** And the AC50 [22]?
**A.** 23.9 µM (active)

From ChEMBL document CHEMBL1201862, “PubChem BioAssay data set” (2004)
